Where two headings read alike, the source gives them in different places.
Tests used:
[1] = system: ADP-induced platelet aggregation in canine platelet rich plasma; test: Inhibition of ADP-Induced ex-vivo Platelet Aggregation after oral administration; type: in vivo, mongrel dogs; settings: dog, dose 5 mg/kg; for inhibition at 5 mg/kg: Canis lupus familiaris, Platelet
Experimental: Inhibition of ADP-Induced ex-vivo Platelet Aggregation
Control blood samples are obtained 5-10 minutes prior to administration of the test compound in mongrel dogs weighing from 10 to 20 kg. The compound is administered intragasticly, via aqueous gavage, or orally, via gelatin capsule. Blood samples (5 ml) are then obtained at 30 minute intervals for 3 hours, and at 6, 12, and 24 hours after dosing. Each blood sample is obtained by venipuncture of the cephalic vein and is collected directly into a plastic syringe containing one part 3.8% trisodium citrate to nine parts blood.
Ex vivo Canine Platelet Aggregation
The blood samples are centrifuged at 1000 rpm for 10 minutes to obtain platelet rich plasma (PRP). After removal of the PRP, the sample is centrifuged for an additional 10 minutes at 2000 rpm to obtain platelet poor plasma (PPP). Platelet count in the PRP is determined by using a Coulter Counter (Coulter Electronics, Hialeah, Fla.). If the concentration of platelets in the PRP is greater than 300,000 platelets/μl, then the PRP is diluted with PPP to adjust the platelet count to 300,000 platelets/μl. Aliquots of PRP (250 μl) are then placed in siliconized glass cuvettes (7.25×55 mm, Bio/Data Corp, Horsham, Pa.). Epinephrine (final concentration of 1 μM) is then added to the PRP, which is incubated for one minute at 37° C. A stimulator of platelet aggregation, ADP at a final concentration of 10 μM, is then added to the PRP. Platelet aggregation is monitored spectrophotometrically utilizing a light transmission aggregometer (Bio/Data Platelet Aggregation Profiler, Model PAP-4, Bio/Data Corp, Horsham, Pa.). For compound to be tested, the rate of change (slope) of light transmittance and the maximum light transmittance (maximum aggregation) is recorded in duplicate. Platelet aggregation data are reported as the percent decrease (mean±SEM) in slope or maximum aggregation as compared to data obtained from control PRP, which is prepared from blood samples obtained prior to administration of the test compound.

[2] = system: fixed activated platelets; test: Platelet Aggregation Assay (fixed-activated platelets, fibrinogen-mediated aggregation); type: cell-based; settings: aggregation initiated by human fibrinogen 250 μg/ml, read-out: Inhibition of Fixed Platelet Aggregation (IC50 μM)
Experimental: Preparation of Fixed-Activated Platelets
Platelets are isolated from human platelet concentrates using the gel-filtration technique as described by Marguerie, G. A., et al., J. Biol. Chem. 254, 5357-5363 (1979) and Ruggeri, Z. M., et al., J. Clin. Invest. 72, 1-12 (1983). The platelets are suspended at a concentration of 2×10^8 cells/ml in a modified calcium-free Tyrode's buffer containing 127 mM sodium chloride, 2 mM magnesium chloride, 0.42 mM Na2HPO4, 11.9 mM NaHCO3, 2.9 mM KCl, 5.5 mM glucose, 10 mM HEPES, at a pH of 7.35 and 0.35% human serum albumin (HSA). These washed platelets are activated by addition of human a-thrombin at a final concentration of 2 units/ml, followed by thrombin inhibitor I-2581 at a final concentration of 40 μM. To the activated platelets is added paraformaldehyde to a final concentration of 0.50% and this incubated at room temperature for 30 minutes. The fixed activated platelets are then collected by centrifugation at 650×g for 15 minutes. The platelet pellets are washed four times with the above Tyrode's-0.35% HSA buffer and resuspended to 2×10^8 cells/ml in the same buffer.
Platelet Aggregation Assay
The fixed activated platelets are incubated with a selected dose of the compound to be tested for platelet aggregation inhibition for one minute and aggregation initiated by addition of human fibrinogen to a final concentration of 250 μg/ml. A platelet aggregation profiler Model PAP-4 is used to record the platelet aggregation. The extent of inhibition of aggregation is expressed as the percentage of the rate of aggregation observed in the absence of inhibitor.

[3] = fixed activated human platelets
[4] = 1 h after dosing, read-out: % Inhibition of ex-vivo Platelet Aggregation After Oral Administration, 1 h
[5] = 3 h after dosing, read-out: % Inhibition of ex-vivo Platelet Aggregation After Oral Administration, 3 h
[6] = 6 h after dosing, read-out: % Inhibition of ex-vivo Platelet Aggregation After Oral Administration, 6 h

Compound | IC50 ([2]; Homo sapiens, Platelet) | also measured
O=C(O)C[C@H](NC(=O)CNC(=O)CCCC1CCNCC1)C(=O)N[C@@H](Cc1c[nH]c2ccccc12)C(=O)O [Compound of EPA '481, 4-4(piperidyl)butanoyl glycyl aspartyl tryptophan, reference compound] |  | % Inhibition of ex-vivo Platelet Aggregation After Oral Administration, 1 h ([1]; 1 h after dosing): 53%; % Inhibition of ex-vivo Platelet Aggregation After Oral Administration, 3 h ([1]; 3 h after dosing): <20%; IC50 [2, 3]: 0.047 µM
CCN(CC(=O)NC(CC(=O)O)C(=O)NC(Cc1ccc2ccccc2c1)C(=O)O)C(=O)CCCC1CCNCC1 [Example 8, N-[N-[N-(4(piperidin-4-yl)butanoyl)-N-ethylglycyl]aspartyl]-L-b-naphth-2-yl alanine] |  | inhibition at 5 mg/kg [1, 4]: 30%; inhibition at 5 mg/kg [1, 5]: < 20%
CCN(CC(=O)NC(CC(=O)O)C(=O)NC(C(=O)O)C(C)C)C(=O)CCC1CCNCC1 (centres unmarked) [Example 9, N-[N-[N-(3-(piperidin-4-yl)propanoyol)-N-ethylglycyl]aspartyl]valine] | 0.77 µM | 
CCN(CC(=O)NC(CC(=O)O)C(=O)NC(C(=O)O)C1CCCCC1)C(=O)CCCC1CCNCC1 [Example 13, N-[N-[N-(4-(piperidin-4-yl)butanoyl)-N-ethylglycyl]aspartyl]-L-a-cyclohexyl glycine] |  | inhibition at 5 mg/kg [1, 4]: 100%; inhibition at 5 mg/kg [1, 5]: 100%; inhibition at 5 mg/kg [1, 6]: 25%
CCN(CC(=O)NC(CC(=O)O)C(=O)NC(CC1CCC2CCCCC2C1)C(=O)O)C(=O)CCCC1CCNCC1 [Example 17, N-[N-[N-(4-(piperidin-4-yl)butanoyl)-N-ethylglycyl]aspartyl]-L-b-cis-decahydronaphth-2-ylalanine] | 0.096 µM | 
CCN(CC(=O)NC(CC(=O)O)C(=O)OCCCC12CC3CC(CC(C3)C1)C2)C(=O)CCCC1CCNCC1 (centres unmarked) [Example 18, 3-Adamant-1-ylpropyl-N-[N-(4-(piperidin-4-yl)butanoyl)-N-ethylglycyl]aspartate] | 0.104 µM | 
CCN(CC(=O)NC(CC(=O)O)C(=O)N[C@H](CC1CCCCC1)C(=O)O)C(=O)CCCC1CCNCC1 (stereo partly drawn) [Example 20, N-[N-[N-(4-(piperidin-4-yl)butanoyl)-N-ethylglycyl]aspartyl]-b-cyclohexyl-D-alanine] | 1.37 µM | 
CCN(CC(=O)NC(CC(=O)O)C(=O)NC(CC1CCCC2CCCCC21)C(=O)O)C(=O)CCCC1CCNCC1 (centres unmarked) [Example 21, N-[N-[N-(4-(piperidin-4-yl)butanoyl)-N-ethylglycyl]aspartyl]-b-decahydronaphth-1-ylalanine] |  | IC50 [2, 3]: 0.055 µM
CCNC(=O)C(CC1CCCCC1)NC(=O)C(CC(=O)O)NC(=O)CN(CC)C(=O)CCCC1CCNCC1 (centres unmarked) [Example 22, N-[N-[N-(4-(piperidin-4-yl)butanoyl)-N-ethylglycyl]aspartyl]-b-cyclohexylalanine ethyl amide] | 0.09 µM | 
CCN(CC(=O)NC(CC(=O)O)C(=O)NC(CO)CC1CCCCC1)C(=O)CCCC1CCNCC1 (centres unmarked) [Example 24, N-[N-[N-(4-(piperidin-4-yl)butanoyl)-N-ethylglycyl]aspartyl]-a-cyclohexylmethylethanolamine] | 0.129 µM | 
CCN(CC(=O)NC(CC(=O)O)C(=O)NC(Cc1cccc2c1CCCC2)C(=O)O)C(=O)CCCC1CCNCC1 (centres unmarked) [Example 27, N-[N-[N-(4-(piperidin-4-yl)butanoyl)-N-ethylglycyl]aspartyl]-b-(1,2,3,4)-tetrahydronaphth-5-ylalanine] | 0.119 µM | 

Second part, led by results:

IC50 ([2]; Homo sapiens, Platelet) | Compound | also measured
0.026 µM | CCN(CC(=O)NC(CC(=O)O)C(=O)NC(CC1CCCCC1)C(=O)O)C(=O)CCCC1CCNCC1 (centres unmarked) [Example 1, N-[N-[N-(4-(piperidin-4-yl)butanoyl)-N-ethylglycyl]aspartyl]-b-cyclogexylalanine] | inhibition at 5 mg/kg [1, 4]: 100%; inhibition at 5 mg/kg [1, 5]: 100%; inhibition at 5 mg/kg [1, 6]: 100%; inhibition at 5 mg/kg ([1]; 12 h after dosing, read-out: % Inhibition of ex-vivo Platelet Aggregation After Oral Administration, 12 h): 88%; inhibition at 5 mg/kg ([1]; 24 h after dosing, read-out: % Inhibition of ex-vivo Platelet Aggregation After Oral Administration, 24 h): 42%
0.078 µM | CCN(CC(=O)NC(CC(=O)O)C(=O)NC(CC1CCCCCCC1)C(=O)O)C(=O)CCCC1CCNCC1 (centres unmarked) [Example 23, N-[N-[N-(4-(piperidin-4-yl)butanoyl)-N-ethylglycyl]aspartyl]-b-cyclooctylalanine] | 
0.046 µM | CCN(CC(=O)NC(CC(=O)O)C(=O)NC(CCC1CCCCC1)C(N)=O)C(=O)CCCC1CCNCC1 (centres unmarked) [Example 25, N-[N-[N-(4-(piperidin-4-yl)butanoyl)-N-ethylglycyl]aspartyl]-b-cyclohexylmethylalanine amide] | 
0.029 µM | CCN(CC(=O)NC(CC(=O)O)C(=O)NC(CC12CC3CC(CC(C3)C1)C2)C(=O)O)C(=O)CCCC1CCNCC1 (centres unmarked) [Example 26, N-[N-[N-(4-(piperidin-4-yl)butanoyl)-N-ethylglycyl]aspartyl]-b-adamant-1-ylalanine] | 
0.048 µM | CCN(CC(=O)NC(CC(=O)O)C(=O)NC(CC1CCC(C2CCCCC2)CC1)C(=O)O)C(=O)CCCC1CCNCC1 (centres unmarked) [Example 28, N-[N-[N-(4-(piperidin-4-yl)butanoyl)-N-ethylglycyl]aspartyl]-b-(4-cyclohexyl)cyclohexylalanine] | 
0.032 µM | CCN(CC(=O)NC(CC(=O)O)C(=O)NC(CC1CCCCCC1)C(=O)O)C(=O)CCCC1CCNCC1 (centres unmarked) [Example 29, N-[N-[N-(4-(piperidin-4-yl)butanoyl)-N-ethylglycyl]aspartyl]-b-cycloheptylalanine] | 
0.07 µM | CCN(CC(=O)NC(CC(=O)O)C(=O)NC(CC1CCCCCCC1)C(N)=O)C(=O)CCCC1CCNCC1 (centres unmarked) [Example 30, N-[N-[N-(4-(piperidin-4-yl)butanoyl)-N-ethylglycyl]aspartyl]-b-cyclooctylalanine amide] | 
0.053 µM | CCN(CC(=O)NC(CC(=O)O)C(=O)NC(CCCC1CCCCC1)C(=O)O)C(=O)CCCC1CCNCC1 (centres unmarked) [Example 31, N-[N-[N-(4-(piperidin-4-yl)butanoyl)-N-ethylglycyl]aspartyl]-a-cyclohexylpropylglycine] | 
0.052 µM | CCN(CC(=O)NC(CC(=O)O)C(=O)NC(CCC1CCCCCCC1)C(=O)O)C(=O)CCCC1CCNCC1 (centres unmarked) [Example 32, N-[N-[N-(4-(piperidin-4-yl)butanoyl)-N-ethylglycyl]aspartyl]-b-cyclooctylmethylalanine] | 
0.047 µM | CCN(CC(=O)NC(CC(=O)O)C(=O)NC(CC1CCCC1)C(=O)O)C(=O)CCCC1CCNCC1 (centres unmarked) [Example 33, N-[N-[N-(4-(piperidin-4-yl)butanoyl)-N-ethylglycyl]aspartyl]-b-cyclopentylalanine] | 
0.074 µM | CCOC(=O)C(CCC1CCCCC1)NC(=O)C(CC(=O)O)NC(=O)CN(CC)C(=O)CCCC1CCNCC1 (centres unmarked) [Example 34, N-[N-[N-(4-(piperidin-4-yl)butanoyl)-N-ethylglycyl]aspartyl]-b-cyclohexylmethylalanine ethyl ester] | 

From patent publication US6797700B2, “Antithrombotic azacycloalkylalkanoyl peptides and pseudopeptides” (Aventis Pharmaceuticals, Inc., priority 1993, dated 2004)
